The text below walks through data of PMC4893628, “Chalcone-based Selective Inhibitors of a C4 Plant Key Enzyme as Novel Potential Herbicides” (Scientific Reports, 2016).

Structures are written as SMILES.

Assay [1] deals with B. napus. Description: Chlorophyll fluorescence measurements, B. napus. The assay is classed as in vivo, Brassica napus. The conditions noted are these: 2 mM.
The subject of assay [2] is B. napus. Description: Leaf gas exchange measurements, B. napus. It is filed as in vivo, Brassica napus. The method, then:
(§1) CO2-response curves were obtained on A. retroflexus and B. napus using a LI-6400XT portable photosynthesis system equipped with a fluorescence head and a leaf chamber size of 2 cm^2 (LI-COR, Lincoln, NE, USA) at a photon flux density of 1500 μmol m^−2 s^−1 and at 25 °C leaf temperature. Plants were grown at the research greenhouse of the IBG-2 Institute of Plant Sciences at Forschungszentrum Jülich, Germany (50°55′20″N 06°21′30″E), at a day/night length of 16 h/8 h, at an average day/night temperature of 23 °C/17 °C, relative humidity of 55%, and light intensity of 170 PAR. Plants were treated as described above at the three-leaf stage. Measurements were performed on the third leaf before treatment and one day after treatment. Each treatment was repeated four times. Information on statistical analysis is given in the Supplementary Information.

Assay [3] deals with A. retroflexus. The experiment in a line: Leaf gas exchange measurements, A. retroflexus. It is filed as in vivo, Amaranthus retroflexus. The method, then:
as §1

For assay [4], the system named is A. retroflexus. The experiment in a line: Chlorophyll fluorescence measurements, A. retroflexus leaf discs. The assay is classed as in vivo, Amaranthus retroflexus. The conditions noted are these: 2 mM. The method, then: from a fixed distance at 90° view angle using the camera Canon EOS 70D equipped with a Canon EF 14 mm/2.8 L II USM lens. Leaf area of single leaves was measured using the ImageJ software31, by drawing the leaf contours using a drawing tablet (Cintiq 22HD, Wacom Europe GmbH, Krefeld, Germany). Conversion of pixel to cm was achieved by using a target of known size inside the image. Six days after the treatment, half of the plants were harvested. Leaf area was assessed using a leaf area meter (LI3100C Area Meter, LI-Cor, Lincoln, Nebraska, USA) and samples were oven-dried at 65°C for seven days to obtain dry weight . Thirteen days after the treatment, this procedure was repeated with the second half of plants.
Chlorophyll fluorescence measurements
For assessment of photosynthetic parameters, A. retroflexus plants were grown under the abovementioned conditions until the two-leaves growth stage. 6 mm leaf discs were cut out of the second leaf and immediately placed into 96-well-plates filled with 300 µL 0.125 % Hoagland’s solution with 1 mM MES-KOH (MES-monohydrate, Merck, Darmstadt, Germany) buffered to a pH of 6.5. The treatment solution contained 1.6 % (v/v) DMSO, 0.1 % (v/v) Tween® 20 and 2',3',4',3,4-Pentahydroxychalcone at a concentration of 2 mM. The control treatment contained 1.6 % (v/v) DMSO, 0.1 % (v/v) Tween® 20. Each leaf disc was treated with 1.5 µL solution placed on top of the leaf discs. Plates were sealed with Parafilm and placed into a climate cabinet with 12h/12h day/night-length and a temperature of 22°C at a light intensity of 130 µmol m-2 s-1. 96 hours after treatment, chlorophyll fluorescence measurements were performed on leaf discs using an Imaging PAM M-Series fluorescence camera (Heinz Walz GmbH, Effeltrich, Germany). Leaf discs were dark adapted for 30 minutes, minimum and maximum chlorophyll fluorescence were obtained and leaf discs were illuminated for 30 minutes

Where [5] appears, read: estimate valid for both measurement days (before and one day after treatment).

For the compound `O=C(/C=C/c1ccc(O)c(O)c1)c1ccc(O)c(O)c1O` [Compound 12, 2′,3′,4′,3,4-Pentahydroxy-chalcone], the photosynthetic parameters entry is “no effect” in assay [1] and “no changes” in assay [2] (after treatment). For the same compound, the “maximal electron transport rate (Jmax)” value in assay [2] (setting [5]) is recorded as 144.2 (3.77). Moreover, the “maximal rubisco carboxylation rate (Vcmax)” value in assay [2] (setting [5]) is 81.5 (3.33). The “mitochondrial respiration (Rd)” value in assay [2] (setting [5]) is on record as 0.9 (0.66). Moreover, the “Maximal PEP carboxylation rate (Vpmax)” value in assay [3] (Before treatment) was 36.5 μmol m^−2 s^−1; in assay [3] (Before treatment, listed as Okanin), 36.5 (3.96) μmol m^−2 s^−1; in assay [3] (One day after treatment), 17.2 μmol m^−2 s^−1; in assay [3] (One day after treatment, listed as Okanin), 17.2 (2.43) μmol m^−2 s^−1. Moreover, in assay [3] (one day after treatment), the “decrease of Vpmax” value is given as “more than 50%”. Also, the “effective quantum yield of photosystem II” value in assay [4] is “increased”. The “maximum electron transfer rate” value in assay [4] is given as “increased”. Also, in assay [4], the non-photochemical quenching entry was “reduced”.
